Measurements: ChEMBL document CHEMBL4261603, “Development of high potent and selective Bcl-2 inhibitors bearing the structural elements of natural product artemisinin” (Eur J Med Chem, 2018)

Key:
Bcl-2-like protein 1 = Bcl-2-like protein 1 (Homo sapiens, UniProt Q07817); experiment: Inhibition of FAM-labelled Bax binding to Bcl-xL (unknown origin) after 30 mins by fluorescence polarization assay
Toledo = experiment: Antiproliferative activity against human Toledo cells after 72 hrs by MTS assay; format: functional, cell-based
RS4-11 = experiment: Antiproliferative activity against human RS4:11 cells after 72 hrs by MTS assay; format: functional, cell-based; conditions: RS4-11, 72 h
Homo sapiens = species: Homo sapiens; experiment: Selectivity factor, ratio of IC50 for Bcl-xL (unknown origin) to Bcl2 (unknown origin)
[1] = target: Apoptosis regulator Bcl-2 (Homo sapiens, UniProt P10415); experiment: Inhibition of FAM-labelled Bax binding to Bcl2 (unknown origin) after 30 mins by fluorescence polarization assay
Chain of Apoptosis regulator Bcl-2 (P10415 whole entry): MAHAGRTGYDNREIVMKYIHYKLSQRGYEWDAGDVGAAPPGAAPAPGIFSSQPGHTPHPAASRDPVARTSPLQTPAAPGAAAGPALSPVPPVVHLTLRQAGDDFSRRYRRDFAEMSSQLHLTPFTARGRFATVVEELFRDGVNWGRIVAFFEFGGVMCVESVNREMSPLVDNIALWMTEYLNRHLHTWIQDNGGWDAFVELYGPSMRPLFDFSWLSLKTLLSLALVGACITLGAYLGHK

[2] = target: Voltage-gated inwardly rectifying potassium channel KCNH2 (Homo sapiens, UniProt Q12809); experiment: Inhibition of human ERG
Chain of Voltage-gated inwardly rectifying potassium channel KCNH2 (Q12809 whole entry): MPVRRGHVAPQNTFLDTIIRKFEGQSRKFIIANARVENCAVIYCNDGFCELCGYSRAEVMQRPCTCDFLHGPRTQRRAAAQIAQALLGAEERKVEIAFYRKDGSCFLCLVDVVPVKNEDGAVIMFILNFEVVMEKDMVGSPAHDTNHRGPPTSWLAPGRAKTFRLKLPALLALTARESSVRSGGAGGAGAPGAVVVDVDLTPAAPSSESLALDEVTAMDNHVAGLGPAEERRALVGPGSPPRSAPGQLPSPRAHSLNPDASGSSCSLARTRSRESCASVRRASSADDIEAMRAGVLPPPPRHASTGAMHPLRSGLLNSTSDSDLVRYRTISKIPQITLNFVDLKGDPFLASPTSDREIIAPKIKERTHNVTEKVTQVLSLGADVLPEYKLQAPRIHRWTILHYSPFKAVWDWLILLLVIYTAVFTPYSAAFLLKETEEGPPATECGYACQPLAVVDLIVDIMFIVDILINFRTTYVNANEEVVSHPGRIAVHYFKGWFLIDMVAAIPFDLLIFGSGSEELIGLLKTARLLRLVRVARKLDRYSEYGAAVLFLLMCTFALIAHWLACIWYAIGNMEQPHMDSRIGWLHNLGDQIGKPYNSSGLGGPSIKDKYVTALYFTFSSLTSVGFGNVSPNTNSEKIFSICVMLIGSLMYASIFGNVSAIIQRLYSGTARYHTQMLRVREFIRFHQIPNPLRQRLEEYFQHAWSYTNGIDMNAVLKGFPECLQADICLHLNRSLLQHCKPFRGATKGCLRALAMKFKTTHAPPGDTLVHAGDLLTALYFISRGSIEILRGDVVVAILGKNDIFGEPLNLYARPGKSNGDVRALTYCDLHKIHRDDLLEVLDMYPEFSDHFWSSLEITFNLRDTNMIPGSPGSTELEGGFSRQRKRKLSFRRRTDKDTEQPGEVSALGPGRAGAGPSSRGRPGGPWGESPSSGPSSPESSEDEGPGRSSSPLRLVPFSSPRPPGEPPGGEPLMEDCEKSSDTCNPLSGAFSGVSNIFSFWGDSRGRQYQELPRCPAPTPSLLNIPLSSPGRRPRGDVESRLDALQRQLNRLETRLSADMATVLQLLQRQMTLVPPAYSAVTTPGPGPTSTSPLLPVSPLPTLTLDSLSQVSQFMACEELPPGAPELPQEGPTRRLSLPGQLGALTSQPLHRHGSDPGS

[3] = Apparent permeability across apical to basolateral side in human Caco2 cells at 20 uM; format: ADME, cell-based; conditions: Caco-2
[4] = Apparent permeability across basolateral to apical side in human Caco2 cells at 20 uM; format: ADME, cell-based; conditions: Caco-2
[5] = Efflux ratio of apparent permeability across […] to apical side in human Caco2 cells at 20 uM; format: ADME, cell-based; conditions: Caco-2

Chain of Bcl-2-like protein 1 (Q07817 whole entry): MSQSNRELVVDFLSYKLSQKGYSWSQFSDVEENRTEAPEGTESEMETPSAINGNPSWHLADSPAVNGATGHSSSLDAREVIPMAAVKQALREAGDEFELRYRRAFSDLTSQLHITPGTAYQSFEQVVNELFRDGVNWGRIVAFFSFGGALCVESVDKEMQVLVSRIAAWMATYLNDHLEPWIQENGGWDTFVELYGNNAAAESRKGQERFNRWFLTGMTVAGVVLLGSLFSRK

SMILES	IC50 (Bcl-2-like protein 1) [nM]	IC50 (Toledo) [nM]	IC50 (RS4-11) [nM]	Ratio IC50 (Homo sapiens)	IC50 [1] [nM]	IC50 [2] [nM]	Papp A→B at 20 µM [3] [×10⁻⁶ cm/s]	Papp B→A at 20 µM [4] [×10⁻⁶ cm/s]	efflux ratio at 20 µM [5]
C[C@@H]1CC[C@H]2[C@@H](C)C(OCCNC3CCN(c4ccc(C(=O)NS(=O)(=O)c5ccc(NCC6CCOCC6)c([N+](=O)[O-])c5)c(Oc5cnc6[nH]ccc6c5)c4)CC3)O[C@@H]3O[C@@]4(C)CC[C@@H]1[C@]32OO4 (stereo partly drawn)	> 1000	> 1000	> 1000	> 526	1.9	–	–	–	–
CO[C@H]1OC2O[C@@]3(C)CC[C@H]4[C@H](C)CC[C@@H]([C@]1(C)CC(=O)N1CCN(c5ccc(C(=O)NS(=O)(=O)c6ccc(NCC7CCOCC7)c([N+](=O)[O-])c6)c(Oc6cnc7[nH]ccc7c6)c5)CC1)[C@@]24OO3 (stereo partly drawn)	> 1000	–	–	> 28.8	34.7	–	–	–	–
CC1(C)CCC(CN2CCN(c3ccc(C(=O)NS(=O)(=O)c4ccc(NCC5CCOCC5)c([N+](=O)[O-])c4)c(Oc4cnc5[nH]ccc5c4)c3)CC2)=C(c2ccc(Cl)cc2)C1 [VENETOCLAX]	–	11	6	–	–	–	–	–	–
C[C@H]1[C@@H](OCCN2CCN(c3ccc(C(=O)NS(=O)(=O)c4ccc(NCC5CCOCC5)c([N+](=O)[O-])c4)c(Oc4cnc5[nH]ccc5c4)c3)CC2)O[C@@H]2O[C@]3(C)O[C@]24[C@H]1CC[C@@H](C)[C@@H]4C[C@H]3O	> 1000	–	–	> 31.3	31.9	–	–	–	–
C[C@@H]1CC[C@H]2C(CN3CCN(c4ccc(C(=O)NS(=O)(=O)c5ccc(NCC6CCOCC6)c([N+](=O)[O-])c5)c(Oc5cnc6[nH]ccc6c5)c4)CC3)=C(C(F)(F)F)O[C@@H]3O[C@@]4(C)CC[C@@H]1[C@]32OO4	71.9	> 1000	> 1000	11.7	6.2	–	–	–	–
C[C@@H]1CC[C@H]2[C@@H](C)C(OCCN3CCN(c4ccc(C(=O)NS(=O)(=O)c5ccc(NCC6CCOCC6)c([N+](=O)[O-])c5)c(Oc5cnc6[nH]ccc6c5)c4)C[C@H]3CO)O[C@@H]3O[C@@]4(C)CC[C@@H]1[C@]32OO4 (stereo partly drawn)	> 1000	> 1000	> 1000	14.9	67.1	–	–	–	–
C[C@@H]1CC[C@H]2[C@@H](C)C(OCCN3CCN(c4ccc(C(=O)NS(=O)(=O)c5ccc(NCC6CCOCC6)c([N+](=O)[O-])c5)c(Oc5cnc6[nH]ccc6c5)c4)C[C@@H]3CO)O[C@@H]3O[C@@]4(C)CC[C@@H]1[C@]32OO4 (stereo partly drawn)	> 1000	> 1000	> 1000	34.8	28.7	–	–	–	–
C[C@H]1[C@@H](OCCN2CCN(c3ccc(C(=O)NS(=O)(=O)c4ccc(NCC5CCOCC5)c([N+](=O)[O-])c4)c(Oc4cnc5[nH]ccc5c4)c3)CC2)O[C@@H]2O[C@@]3(C)CC[C@H]4[C@H](C)CC[C@@H]1[C@@]24O3	624	9700	4400	280	2.2	–	–	–	–
C[C@H]1[C@@H](CC(=O)N2CCN(c3ccc(C(=O)NS(=O)(=O)c4ccc(NCC5CCOCC5)c([N+](=O)[O-])c4)c(Oc4cnc5[nH]ccc5c4)c3)CC2)O[C@@H]2O[C@@]3(C)CC[C@H]4[C@H](C)CC[C@@H]1[C@@]24O3	270	> 1000	> 1000	77.2	3.5	–	–	–	–
C[C@H]1[C@@H](CC(=O)N2CCN(c3ccc(C(=O)NS(=O)(=O)c4ccc(NCC5CCOCC5)c([N+](=O)[O-])c4)c(Oc4cnc5[nH]ccc5c4)c3)CC2)O[C@@H]2O[C@@]3(C)CC[C@H]4[C@H](C)CC[C@@H]1[C@@]24OO3	109	–	–	9.16	11.9	–	–	–	–
C[C@H]1[C@@H](CC(=O)N2CCN(c3ccc(C(=O)NS(=O)(=O)c4ccc(NCC5CCOCC5)c([N+](=O)[O-])c4)c(Oc4cnc5[nH]ccc5c4)c3)CC2)O[C@@H]2O[C@]3(C)O[C@]24[C@H]1CC[C@@H](C)[C@@H]4C[C@H]3O	765	> 1000	> 1000	15.3	50.1	–	–	–	–
C[C@@H]1CC[C@H]2C(CN3CCN(c4ccc(C(=O)NS(=O)(=O)c5ccc(NCC6CCOCC6)c([N+](=O)[O-])c5)c(Oc5cnc6[nH]ccc6c5)c4)CC3)=C(C(F)(F)F)O[C@@H]3O[C@@]4(C)CC[C@@H]1[C@]32O4	970	7400	1900	343	2.8	–	–	–	–
C[C@@H]1CC[C@@H]2[C@]34OO[C@](C)(CC[C@@H]13)O[C@H]4O[C@]2(C)C(=O)N1CCN(c2ccc(C(=O)NS(=O)(=O)c3ccc(NCC4CCOCC4)c([N+](=O)[O-])c3)c(Oc3cnc4[nH]ccc4c3)c2)CC1	512	–	–	39.2	13	–	–	–	–
C[C@H]1[C@@H](CCCN2CCN(c3ccc(C(=O)NS(=O)(=O)c4ccc(NCC5CCOCC5)c([N+](=O)[O-])c4)c(Oc4cnc5[nH]ccc5c4)c3)CC2)O[C@@H]2O[C@@]3(C)CC[C@H]4[C@H](C)CC[C@@H]1[C@@]24OO3	> 1000	880	890	> 806	1.2	> 40000	–	–	–
C[C@H]1[C@@H](OCCN2CCN(c3ccc(C(=O)NS(=O)(=O)c4ccc(NCC5CCOCC5)c([N+](=O)[O-])c4)c(Oc4cnc5[nH]ccc5c4)c3)CC2)O[C@@H]2O[C@@]3(C)CC[C@H]4[C@H](C)CC[C@@H]1[C@@]24OO3	279	950	520	55.3	5	> 40000	0.21	6.07	28.8
C[C@@H]1CC[C@H]2[C@@](C)(O)[C@@H](OCCN3CCN(c4ccc(C(=O)NS(=O)(=O)c5ccc(NCC6CCOCC6)c([N+](=O)[O-])c5)c(Oc5cnc6[nH]ccc6c5)c4)CC3)O[C@@H]3O[C@@]4(C)CC[C@@H]1[C@]32OO4	287	–	–	3.3	86.5	–	–	–	–
C[C@H]1[C@@H](CCN2CCN(c3ccc(C(=O)NS(=O)(=O)c4ccc(NCC5CCOCC5)c([N+](=O)[O-])c4)c(Oc4cnc5[nH]ccc5c4)c3)CC2)O[C@@H]2O[C@@]3(C)CC[C@H]4[C@H](C)CC[C@@H]1[C@@]24O3	> 1000	2600	1300	> 546	1.8	–	–	–	–
C[C@H]1[C@@H](CCN2CCN(c3ccc(C(=O)NS(=O)(=O)c4ccc(NCC5CCOCC5)c([N+](=O)[O-])c4)c(Oc4cnc5[nH]ccc5c4)c3)CC2)O[C@@H]2O[C@@]3(C)CC[C@H]4[C@H](C)CC[C@@H]1[C@@]24OO3	> 1000	–	–	> 103	9.7	–	–	–	–
C[C@H]1[C@H](N(C)CCN2CCN(c3ccc(C(=O)NS(=O)(=O)c4ccc(NCC5CCOCC5)c([N+](=O)[O-])c4)c(Oc4cnc5[nH]ccc5c4)c3)CC2)O[C@@H]2O[C@@]3(C)CC[C@H]4[C@H](C)CC[C@@H]1[C@@]24OO3	> 1000	–	–	> 59.9	16.7	–	–	–	–
